Read-outs that look alike come from different tables or passages of the source.

From patent publication US20240199647A1, “ANTI-VIRAL COMPOUNDS” (Aligos Therapeutics, Inc., priority 2022, published 2024) come the findings set out here.

One data set concerns the target SARS-Cov-2 3CLpro (Severe acute respiratory syndrome coronavirus 2, UniProt P0DTD1). Nature of the data set: biochemical. Conditions: Table A, class symbols, read-out: SARS-Cov-2 (IC50).
Data set [1] deals with human beta-coronavirus OC43. Nature of the data set: OC43 Coronavirus Assay in HeLa cells (antiviral, cytopathic effect, cell-titer-glo). Type of data set: cell-based. Conditions: Betacoronavirus 1, OC43, HeLa, Table B; OC43 coronavirus in HeLa cells, class symbols; read-out: EC50. (In general: Damage to the host cells serves as the signal in cytopathic effect assays.)
The subject of data set [2] is SARS-CoV-2 B.1.1.7 lineage. Put plainly: microbe, parasite or virus in culture. Type of data set: cell-based. The conditions noted are these: Severe acute respiratory syndrome coronavirus 2, Table C, SARS-CoV-2 B.1.1.7 in A549-dual_ACE2_TMPRSS2 cells, read-out: A549-dual_ACE2_TMPRSS2 (EC50).
The next data set can be described thus: in vitro. Conditions: human.
Data set [3] can be described thus: Cytotoxicity in HeLa cells without addition of OC43 virus (in parallel). The conditions noted are these: human, HeLa cells, without OC43 virus.

The IC50 is the midpoint of a concentration-inhibition curve. For orientation: EC50 means the concentration at which the effect is half-maximal. `CN(C(=O)[C@@H](NC(=O)C(F)(F)F)C1CC(F)(F)C1)[C@@H](CC1CC1)C(=O)N1C[C@@]2(C[C@H]1C#N)Oc1cccnc1NC2=O` [Compound 201]: the half-maximal inhibitory concentration (IC50) at SARS-Cov-2 3CLpro is 20 to 200 nM. In addition, the EC50 in data set [1] and in data set [2] (class symbols) was 100 to 1000 nM throughout. For the same compound, the CC50 in the data set “in vitro” was greater than 1000 nM. The compound also showed a CC50 at 6 days in data set [3] greater than 10000 nM.
`CN(C(=O)[C@H](COc1ccccc1)NC(=O)C(F)(F)F)[C@@H](CC1CC1)C(=O)N1C[C@@]2(C[C@H]1C#N)Oc1cccnc1NC2=O` [Compound 202]: the IC50 on SARS-Cov-2 3CLpro is less than 20 nM. Also, the results for the concentration for a half-maximal effect (EC50) in data set [1] and in data set [2] (cells given as a bound) were 100 to 1000 nM and greater than 1000 nM, respectively. The CC50 in the data set “in vitro” was greater than 1000 nM. Besides, the CC50 at 6 days in data set [3] was greater than 10000 nM.
For the compound `CN(C(=O)[C@H](CC1CCC1)NC(=O)C(F)(F)F)[C@@H](CC1CC1)C(=O)N1C[C@@]2(C[C@H]1C#N)Oc1ncccc1NC2=O` [Compound 203], the IC50 on SARS-Cov-2 3CLpro was less than 20 nM. For the same compound, the half-maximal effective concentration (EC50) in data set [1] and in data set [2] (class symbols) was less than 100 nM throughout. This compound yielded a CC50 in “in vitro” greater than 1000 nM. This compound also returned a CC50 at 6 days in data set [3] greater than 10000 nM.
As to `CN(C(=O)[C@H](CC(C)(C)C)NC(=O)C(F)(F)F)[C@@H](CC1CC1)C(=O)N1C[C@@]2(C[C@H]1C#N)Oc1ncccc1NC2=O` [Compound 204], the IC50 at SARS-Cov-2 3CLpro was less than 20 nM. The EC50 in data set [1] and in data set [2] (class symbols) was less than 100 nM in each case. The CC50 in “in vitro” is greater than 1000 nM. In data set [3], this compound returned a CC50 at 6 days greater than 10000 nM.
`CN(C(=O)[C@@H](Cc1ccc(F)cc1)NC(=O)C(F)(F)F)[C@@H](CC1CC1)C(=O)N1C[C@@]2(C[C@H]1C#N)Oc1ncccc1NC2=O` [Compound 205]: the IC50 on SARS-Cov-2 3CLpro is less than 20 nM. Further, the 50% effective concentration (EC50) in data set [1] and in data set [2] (class symbols) was less than 100 nM throughout. Moreover, the CC50 in the data set “in vitro” was greater than 1000 nM. In data set [3], this compound gave a CC50 at 6 days greater than 10000 nM.
Regarding `CN(C(=O)[C@H](CC1(C)CCC1)NC(=O)C(F)(F)F)[C@@H](CC1CC1)C(=O)N1C[C@@]2(C[C@H]1C#N)Oc1ncccc1NC2=O` [Compound 206], the IC50 at SARS-Cov-2 3CLpro is less than 20 nM. Further, the half-maximal effective concentration (EC50) in data set [1] and in data set [2] (class symbols) was less than 100 nM throughout. The compound also came in with a CC50 in the data set “in vitro” greater than 1000 nM. The compound further yielded a CC50 at 6 days in data set [3] greater than 10000 nM.
For `CN(C(=O)[C@H](CC1CC1)NC(=O)C(F)(F)F)[C@@H](CC1CC1)C(=O)N1C[C@@]2(C[C@H]1C#N)Oc1cc(F)cc(F)c1CNC2=O` [Compound 207], the half-maximal inhibitory concentration (IC50) on SARS-Cov-2 3CLpro was in the range of 20 to 200 nM. Further, the EC50 in data set [1] and in data set [2] (class symbols) was less than 100 nM each time. The compound also gave a CC50 in “in vitro” greater than 1000 nM. In data set [3], the CC50 at 6 days is greater than 10000 nM.
Consider `CN(C(=O)c1ncc(-c2ccccc2)[nH]1)[C@@H](CC1CC1)C(=O)N1C[C@@]2(C[C@H]1C#N)Oc1cccnc1NC2=O` [Compound 208], for which, on SARS-Cov-2 3CLpro, the IC50 lay within 20 to 200 nM. Also, the EC50 in data set [1] and in data set [2] (class symbols) was 100 to 1000 nM throughout. In the data set “in vitro”, this compound returned a CC50 greater than 1000 nM. The same compound registered a CC50 at 6 days in data set [3] greater than 10000 nM.
In the case of `C[C@H](NC(=O)C(F)(F)F)C(=O)N(C)[C@@H](CC1CC1)C(=O)N1C[C@@]2(C[C@H]1C#N)Oc1ncccc1NC2=O` [Compound 209], the 50% inhibitory concentration (IC50) at SARS-Cov-2 3CLpro is less than 20 nM. The 50% effective concentration (EC50) in data set [1] is less than 100 nM; in data set [2] (class symbols), 100 to 1000 nM. This compound also gave a CC50 in the data set “in vitro” greater than 1000 nM. In addition, the CC50 at 6 days in data set [3] is greater than 10000 nM.
The like results for `COC(=O)N[C@@H](C)C(=O)N(C)[C@@H](CC1CC1)C(=O)N1C[C@@]2(C[C@H]1C#N)Oc1cccnc1NC2=O` [Compound 213] were, in that order, less than 20 nM, less than 100 nM, 100 to 1000 nM, greater than 1000 nM and greater than 10000 nM.
For `COC(=O)N[C@@H](CC1CC1)C(=O)N(C)[C@@H](CC1CC1)C(=O)N1C[C@@]2(C[C@H]1C#N)Oc1ncccc1NC2=O` [Compound 214] the same measures were less than 20 nM, less than 100 nM, 100 to 1000 nM, greater than 1000 nM and greater than 10000 nM.
For `CN(C(=O)[C@H](CC1(C)CC1)NC(=O)C(F)(F)F)[C@@H](CC1(C)CC1)C(=O)N1C[C@@]2(C[C@H]1C#N)Oc1cccnc1NC2=O` [Compound 215] the same measures were less than 20 nM, less than 100 nM, less than 100 nM, greater than 1000 nM and greater than 10000 nM.
For the compound `C[C@H](NC(=O)OC1CC1)C(=O)N(C)[C@@H](CC1CC1)C(=O)N1C[C@@]2(C[C@H]1C#N)Oc1cccnc1NC2=O` [Compound 219], on SARS-Cov-2 3CLpro, the concentration for half-maximal inhibition (IC50) is less than 20 nM. Moreover, the concentration for a half-maximal effect (EC50) is less than 100 nM in data set [1] and 100 to 1000 nM in data set [2] (class symbols). In addition, the CC50 in “in vitro” is greater than 1000 nM. In data set [3], this compound yielded a CC50 at 6 days greater than 10000 nM.
On to `CCOC[C@H](NC(=O)C(F)(F)F)C(=O)N(C)[C@@H](CC1CC1)C(=O)N1C[C@@]2(C[C@H]1C#N)Oc1cccnc1NC2=O` [Compound 220], for which the half-inhibitory concentration (IC50) at SARS-Cov-2 3CLpro was less than 20 nM. In addition, the EC50 in data set [1] was less than 100 nM; in data set [2] (class symbols) it was 100 to 1000 nM. Also, the CC50 in “in vitro” was greater than 1000 nM. In data set [3], this compound displayed a CC50 at 6 days greater than 10000 nM.
The like results for `CC1NC(=O)[C@]2(C[C@@H](C#N)N(C(=O)[C@H](CC3CC3)N(C)C(=O)[C@H](CC3CC3)NC(=O)C(F)(F)F)C2)Oc2ccccc21` (stereo partly drawn) [Compound 222, (2S)—N-((2S)-1-((2R,5'S)-5′-cyano-5-methyl-3-oxo-4,5-dihydro-3H-spiro[benzo[f][1,4]oxazepine-2,3′-pyrrolidin]-1′-yl)-3-cyclopropyl-1-oxopropan-2-yl)-3-cyclopropyl-N-methyl-2-(2,2,2-trifluoroacetamido)propanamide] were, in that order, less than 20 nM, less than 100 nM, less than 100 nM, greater than 1000 nM and greater than 10000 nM.
For `COC1CNC(=O)[C@]12C[C@@H](C#N)N(C(=O)[C@H](CC1CC1)N(C)C(=O)[C@H](CC1CC1)NC(=O)C(F)(F)F)C2` (stereo partly drawn) [Compound 225, (2S)—N-((2S)-1-((3S,5S)-3-cyano-9-methoxy-6-oxo-2,7-diazaspiro[4.4]nonan-2-yl)-3-cyclopropyl-1-oxopropan-2-yl)-3-cyclopropyl-N-methyl-2-(2,2,2-trifluoroacetamido)propanamide] the same measures were 20 to 200 nM, 100 to 1000 nM, 100 to 1000 nM, greater than 1000 nM and greater than 10000 nM.
Turning to `CN(C(=O)C(=O)Nc1ccc(F)cc1)[C@@H](CC1CC1)C(=O)N1C[C@@]2(C[C@H]1C#N)Oc1cccnc1NC2=O` [Compound 226, N^1—((S)-1-((2R,5'S)-5′-cyano-3-oxo-3,4-dihydrospiro[pyrido[3,2-b][1,4]oxazine-2,3′-pyrrolidin]-1′-yl)-3-cyclopropyl-1-oxopropan-2-yl)-N^2-(4-fluorophenyl)-N^1-methyloxalamide], the IC50 at SARS-Cov-2 3CLpro lay within 200 to 2000 nM. For the same compound, the concentration giving a half-maximal response (EC50) was 1000 to 10000 nM in data set [1] and greater than 1000 nM in data set [2] (cells given as a bound). In addition, the CC50 in “in vitro” was greater than 1000 nM. This compound came in with a CC50 at 6 days in data set [3] greater than 10000 nM.
For `Cc1ccc2c(n1)O[C@@]1(C[C@@H](C#N)N(C(=O)[C@H](CC3CC3)N(C)C(=O)[C@H](CC3CC3)NC(=O)C(F)(F)F)C1)C(=O)N2` [Compound 227, (S)—N—((S)-1-((3R,5'S)-5′-cyano-6-methyl-2-oxo-1,2-dihydrospiro[pyrido[2,3-b][1,4]oxazine-3,3′-pyrrolidin]-1′-yl)-3-cyclopropyl-1-oxopropan-2-yl)-3-cyclopropyl-N-methyl-2-(2,2,2-trifluoroacetamido)propanamide], the IC50 on SARS-Cov-2 3CLpro was less than 20 nM. Besides, the EC50 was less than 100 nM in data set [1] and 100 to 1000 nM in data set [2] (class symbols). The compound also yielded a CC50 in the data set “in vitro” greater than 1000 nM. Moreover, the CC50 at 6 days in data set [3] was greater than 10000 nM.
For `CN(C(=O)[C@H](CC1CC1)NC(=O)C(F)(F)F)[C@@H](CC1CC1)C(=O)N1C[C@@]2(C[C@H]1C#N)Oc1ccccc1C(C)(C)NC2=O` [Compound 228] the same measures were 20 to 200 nM, 100 to 1000 nM, 100 to 1000 nM, greater than 1000 nM and greater than 10000 nM.
For `Cc1ccc2c(n1)NC(=O)[C@]1(C[C@@H](C#N)N(C(=O)[C@H](CC3CC3)N(C)C(=O)[C@H](C)NC(=O)C(F)(F)F)C1)O2` [Compound 229, (S)—N—((S)-1-((2R,5'S)-5′-cyano-6-methyl-3-oxo-3,4-dihydrospiro[pyrido[3,2-b][1,4]oxazine-2,3′-pyrrolidin]-1′-yl)-3-cyclopropyl-1-oxopropan-2-yl)-N-methyl-2-(2,2,2-trifluoroacetamido)propanamide] the same measures were less than 20 nM, less than 100 nM, 100 to 1000 nM, greater than 1000 nM and greater than 10000 nM.
In the case of `CC(C)C[C@@H](C(=O)N1C[C@@]2(C[C@H]1C#N)Oc1ccccc1NC2=O)N(C)C(=O)[C@H](C)NC(=O)C(F)(F)F` [Example 1, (S)—N—((S)-1-((2R,5′S)-5′-cyano-3-oxo-3,4-dihydrospiro[benzo[b][1,4]oxazine-2,3′-pyrrolidin]-1′-yl)-4-methyl-1-oxopentan-2-yl)-N-methyl-2-(2,2,2-trifluoroacetamido)propanamide], at SARS-Cov-2 3CLpro, the IC50 is less than 20 nM. Also, the EC50 in data set [1] and in data set [2] (class symbols) was less than 100 nM in each case. This compound also returned a CC50 in “in vitro” greater than 1000 nM. In data set [3], this compound had a CC50 at 6 days greater than 10000 nM.
